Assay results: US20210395679A1, “IN VITRO CELL CULTURE SYSTEM FOR PRODUCING HEPATOCYTE-LIKE CELLS AND USES THEREOF” (CHILDREN'S HOSPITAL MEDICAL CENTER, priority 2018, published 2021)

Target: T1, MRP4 (Homo sapiens, UniProt O15439)
T1 sequence (O15439 1-1325): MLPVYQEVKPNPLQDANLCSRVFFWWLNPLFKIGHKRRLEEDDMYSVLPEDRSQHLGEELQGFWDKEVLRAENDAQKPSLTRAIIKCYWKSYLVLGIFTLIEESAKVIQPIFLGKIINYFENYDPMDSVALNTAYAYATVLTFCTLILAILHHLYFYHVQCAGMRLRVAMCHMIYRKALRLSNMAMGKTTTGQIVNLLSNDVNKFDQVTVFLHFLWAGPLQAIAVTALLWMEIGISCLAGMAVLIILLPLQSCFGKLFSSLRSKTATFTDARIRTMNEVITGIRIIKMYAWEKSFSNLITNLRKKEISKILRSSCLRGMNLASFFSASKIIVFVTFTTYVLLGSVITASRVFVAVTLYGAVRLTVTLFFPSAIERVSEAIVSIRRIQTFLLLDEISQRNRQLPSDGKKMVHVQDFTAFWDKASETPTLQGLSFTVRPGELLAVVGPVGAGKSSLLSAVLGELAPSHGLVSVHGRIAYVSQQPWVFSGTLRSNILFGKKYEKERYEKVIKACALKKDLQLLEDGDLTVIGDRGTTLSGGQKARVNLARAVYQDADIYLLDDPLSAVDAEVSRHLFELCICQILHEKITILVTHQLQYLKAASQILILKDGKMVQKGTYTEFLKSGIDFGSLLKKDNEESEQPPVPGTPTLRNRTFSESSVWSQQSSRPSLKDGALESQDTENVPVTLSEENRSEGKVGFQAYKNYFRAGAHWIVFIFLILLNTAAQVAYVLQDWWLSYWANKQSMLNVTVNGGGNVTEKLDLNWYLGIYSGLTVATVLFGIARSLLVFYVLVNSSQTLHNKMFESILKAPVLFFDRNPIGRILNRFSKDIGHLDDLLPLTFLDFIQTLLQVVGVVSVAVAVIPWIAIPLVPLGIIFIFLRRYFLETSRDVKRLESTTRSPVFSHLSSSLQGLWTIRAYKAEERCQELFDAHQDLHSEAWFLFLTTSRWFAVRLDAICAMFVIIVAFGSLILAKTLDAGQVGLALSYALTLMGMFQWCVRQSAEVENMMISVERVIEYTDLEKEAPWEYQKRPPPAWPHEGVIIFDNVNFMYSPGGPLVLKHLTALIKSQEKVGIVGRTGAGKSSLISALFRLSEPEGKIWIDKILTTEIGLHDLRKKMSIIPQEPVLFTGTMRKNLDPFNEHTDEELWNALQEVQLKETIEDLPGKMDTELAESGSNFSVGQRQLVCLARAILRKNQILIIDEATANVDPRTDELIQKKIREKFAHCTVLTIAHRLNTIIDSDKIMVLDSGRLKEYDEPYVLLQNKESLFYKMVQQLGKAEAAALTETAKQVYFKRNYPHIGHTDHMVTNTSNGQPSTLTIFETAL
Experiment: Wash-out assay of intracellular-to-basolateral D4-TCA export with or without MRP4 inhibitor
Conditions: normal i-Hep, 1 h D4-TCA 10 μM in the lower chamber, fresh medium with or without inhibitor

Cn1c(CSc2nc3ccccc3s2)n[nH]c1=S [Ceefourin1]
basolateral export of D4-TCA towards the lower chamber: did not alter the basolateral export
